This passage reports inhibition in vivo, GOT inhibition and GPT inhibition results from patent publication US6048882A, “Prophylactic and therapeutic agent for hepatic diseases” (Nisshin Flour Milling Co., Ltd., priority 1995, dated 2000).

Structures are written as SMILES. Counter-ions that a name gives are not always drawn. Like-named read-outs stand apart in the source and are kept apart here.

The subject of assay [1] is experimental hepatopathy models prepared by administering carbon tetrachloride. Put plainly: Inhibitory action on hepatopathy in hepatopathy models by carbon tetrachloride (lipid emulsion; serum GPT and GOT). It is filed as in vivo, ddY strain male mice. The conditions noted are these: Mus musculus, iv, 20 h, i.v., one hour before carbon tetrachloride; for inhibition in vivo at 0.001 mg/kg: dose 1 μg/kg; for inhibition in vivo at 0.0001 mg/kg: dose 0.1 μg/kg. As for the experimental part:
Carbon tetrachloride was diluted with olive oil to a concentration of 0.5% when administered. The present isoprenylamine derivatives were formulated into the lipid emulsions according to the method described in Pharmaceutical Example 8 and intravenously administered at a dose of 0.1-10 μg/kg one hour before the administration of carbon tetrachloride. 20 hours after the administration of carbon tetrachloride, blood samples were collected from animals under ether anesthesia and centrifuged. Then, serum GPT and GOT were determined and the respective inhibition rates were calculated on the bases of the serum GPT and GOT values obtained when the present isoprenylamine derivative was not administered being defined as 100, respectively.

Assay [2] deals with experimental hepatopathy models prepared by D-galactosamine administration. The assay can be described thus: Inhibitory action on hepatopathy in hepatopathy models by D-galactosamine (serum GPT and GOT). It is filed as in vivo, Wistar strain male mice. As to conditions: iv, 24 h, lipid emulsion, i.v., dose 10 μg/kg, 2 hours after D-galactosamine. The protocol:
(§1) In these tests, GPT (glutamic-pyruvic transaminase) and GOT (glutamic-oxaloacetic transaminase) were determined using kits for the determination of GPT and GOT upon the method by U. Lippi et al., Iatrozyme TA-Lq (available from Iatron Laboratories Inc.), wherein the NADH formed when enzymes act upon substrates can reduce nitrotetrazolium blue (NTB) via 1-methoxy-5-methylphenazinium methylsulfate (1-methoxy PMS) to form formazan, which is then subjected to colorimetric analysis at a wavelength of 560 nm.
Inhibitory action of lipid emulsions containing the present isoprenylamine derivatives was evaluated by inhibition rates of GPT and GOT in experimental hepatopathy models prepared by D-galactosamine administration.
The experimental hepatopathy model was prepared by intraperitoneal administration of D-galactosamine at 400 mg/kg to Wistar strain male […] weighing about 170 g. The present isoprenylamine derivative was formulated to a lipid emulsion according to the method described in Pharmaceutical Example 8, and was intravenously administered at a dose of 10-30 μg/kg 2 hours after the administration of D-galactosamine.
24 hours after the D-galactosamine administration, blood samples were collected form animals under ether anesthesia and centrifuged. Then, serum GPT and GOT were determined and the respective inhibition rates were calculated on the bases of the serum GPT and GOT values obtained when the present isoprenylamine derivatives were not administered being defined as 100, respectively.
For comparison, glycyrrhizin ammonium (Tokyo Kasei Co.) dissolved in distilled water was administered in a similar manner to that for the isoprenylamine derivatives, blood sampling and determination were conducted and the serum GPT and GOT inhibition rates were calculated.

Assay [3] deals with experimental hepatopathy models prepared by administering carbon tetrachloride. Put plainly: Inhibitory action on hepatopathy in hepatopathy models by carbon tetrachloride (suspension with 2% Tween 80; serum GPT and GOT). It is filed as in vivo, ddY strain male mice. The conditions noted are these: suspension with 2% Tween 80, i.v., dose 0.1 mg/kg, one hour before carbon tetrachloride. The protocol:
as §1
Inhibitory actions of the present isoprenylamine derivatives was evaluated by inhibition rates of GPT and GOT in experimental hepatopathy models prepared by administering carbon tetrachloride.
The experimental hepatopathy model was prepared by intraperitoneal administration of 0.02 ml/kg carbon tetrachloride to ddY strain male mice (6 weeks old, body weight of about 30 g). Carbon tetrachloride was diluted with olive oil to a concentration of 0.5% when administered. […]
20 hours after the administration of carbon tetrachloride, blood samples were collected from animals under ether anesthesia and centrifuged. Then, serum GPT and GOT were determined and the respective inhibition rates were calculated on the bases of the serum GPT and GOT values obtained when Compound 6 was not administered being defined as 100, respectively.

With `CC(C)=CCC/C(C)=C/CC/C(C)=C/CC/C(C)=C/CC/C(C)=C/CC/C(C)=C/CC/C(C)=C/CNCc1ccc2c(c1)OCO2` [Compound 4, N-farnesylgeranylgeranylpiperonylamine hydrochloride], the inhibition in vivo at 0.001 mg/kg was determined as 28% in assay [1] (read-out: GOT inhibition) and 22% in assay [1] (read-out: GPT inhibition). Moreover, the figures for the inhibition in vivo at 0.01 mg/kg in assay [2] (read-out: GOT inhibition) and in assay [2] (read-out: GPT inhibition) were 31% and 30%, respectively.

Regarding `CC(C)=CCC/C(C)=C/CC/C(C)=C/CC/C(C)=C/CC/C(C)=C/CC/C(C)=C/CC/C(C)=C/CC/C(C)=C/CC/C(C)=C/CNCc1ccc2c(c1)OCO2` [Compound 6, N-solanesylpiperonylamine hydrochloride], the inhibition in vivo at 0.001 mg/kg in assay [1] (read-out: GOT inhibition) came out at 50%; in assay [1] (read-out: GPT inhibition), 40%. In assay [3], this molecule showed a GOT inhibition of 37%. Moreover, the GPT inhibition in assay [3] is 34%. Also, the inhibition in vivo at 0.01 mg/kg in assay [2] (read-out: GOT inhibition) and in assay [2] (read-out: GPT inhibition) was 40% throughout.

For the molecule `CC(C)=CCC/C(C)=C/CC/C(C)=C/CC/C(C)=C/CC/C(C)=C/CC/C(C)=C/CC/C(C)=C/CC/C(C)=C/CC/C(C)=C/CC/C(C)=C/CNCc1ccc2c(c1)OCO2` [Compound 20, N-decaprenylpiperonylamine hydrochloride], the inhibition in vivo at 0.0001 mg/kg was found to be 53% in assay [1] (read-out: GOT inhibition) and 60% in assay [1] (read-out: GPT inhibition). Besides, the results for the inhibition in vivo at 0.01 mg/kg in assay [2] (read-out: GOT inhibition) and in assay [2] (read-out: GPT inhibition) were 44% and 43%, respectively.

As to `CC(C)=CCC/C(C)=C/CC/C(C)=C/CC/C(C)=C/CC/C(C)=C/CC/C(C)=C/CC/C(C)=C/CC/C(C)=C/CC/C(C)=C/CC/C(C)=C/CC/C(C)=C/CNCc1ccc2c(c1)OCO2` [Compound 21, N-undecaprenylpiperonylamine hydrochloride], the inhibition in vivo at 0.001 mg/kg in assay [1] (read-out: GOT inhibition) was determined as 38%; in assay [1] (read-out: GPT inhibition), 33%.
